Tests used:
ALOMY [1] = experiment: Pre-emergence herbicidal action against ALOMY; type: in vivo, Alopecurus myosuroides; details: Alopecurus myosuroides, 504 h; 80 g/ha, pre-emergence, scored visually after 3 weeks vs untreated controls (100% = plants have died, 0% = like control plants)
Outline: (§1)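 Herbicidal effect was assessed 3 weeks after treatment by visual comparison with untreated controls, 100% denoting dead plants. Aqueous WP or EC preparations had been applied at 600 to 800 l/ha with 0.2% wetting agent to the soil covering freshly sown seeds.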

VERPE [2] = experiment: Post-emergence herbicidal action against VERPE; type: in vivo, Veronica persica; details: Veronica persica, 504 h, 20 g/ha
Outline: (§2)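 Post-emergence greenhouse test; one-leaf stage, 2–3 wk post-sowing, sandy loam. Foliar spray of WP/EC in water, 600–800 l/ha, +0.2% wetting agent. Visual % action at ~3 wk vs untreated (100% = plants dead).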

ECHCG [3] = experiment: Pre-emergence herbicidal action against ECHCG; type: in vivo, Echinochloa crus-galli; details: Echinochloa crus-galli, 504 h
Outline: as §1

VIOTR [4] = experiment: Post-emergence herbicidal action against VIOTR; type: in vivo, Viola tricolor; details: Viola tricolor, 504 h
Outline: as §2

MATIN [5] = experiment: Pre-emergence herbicidal action against MATIN; type: in vivo, Matricaria inodora; details: Tripleurospermum inodorum, 504 h; for pest or weed control at 20 g/ha: dosage 20 g/ha; for pest or weed control at 80 g/ha: dosage 80 g/ha
Outline: as §1

ECHCG [6] = experiment: Post-emergence herbicidal action against ECHCG; type: in vivo, Echinochloa crus-galli; details: Echinochloa crus-galli, 504 h; for pest or weed control at 5 g/ha: dosage 5 g/ha; for pest or weed control at 20 g/ha: dosage 20 g/ha
Outline: as §2

POLCO = experiment: Pre-emergence herbicidal action against POLCO; type: in vivo, Polygonum convolvulus; details: Fallopia convolvulus, 504 h, dosage 80 g/ha
Outline: as §1

ALOMY [7] = experiment: Post-emergence herbicidal action against ALOMY; type: in vivo, Alopecurus myosuroides; details: Alopecurus myosuroides, 504 h, dosage 20 g/ha, visual assessment about 3 weeks after treatment vs untreated controls
Outline: as §2

AVEFA [8] = experiment: Pre-emergence herbicidal action against AVEFA; type: in vivo, Avena fatua; details: Avena fatua, 504 h, pre-emergence; for pest or weed control at 20 g/ha: scored visually after 3 weeks, 100% = plants have died, 0% = like control plants
Outline: as §1

SETVI [9] = experiment: Post-emergence herbicidal action against SETVI; type: in vivo, Setaria viridis; details: Setaria viridis, 504 h; for pest or weed control at 5 g/ha: dosage 5 g/ha; for pest or weed control at 20 g/ha: dosage 20 g/ha
Outline: as §2

VIOTR [10] = experiment: Pre-emergence herbicidal action against VIOTR; type: in vivo, Viola tricolor; details: Viola tricolor, 504 h; for pest or weed control at 80 g/ha: dosage 80 g/ha
Outline: as §1

DIGSA [11] = experiment: Post-emergence herbicidal action against DIGSA; type: in vivo, Digitaria sanguinalis; details: Digitaria sanguinalis, 504 h
Outline: as §2

AVEFA [12] = experiment: Post-emergence herbicidal action against AVEFA; type: in vivo, Avena fatua; details: Avena fatua, 504 h, 20 g/ha, visual assessment about 3 weeks after treatment, 100% = plants have died, 0% = like control plants
Outline: as §2

ABUTH [13] = experiment: Post-emergence herbicidal action against ABUTH; type: in vivo, Abutilon theophrasti; details: Abutilon theophrasti, 504 h, visual assessment about 3 weeks after treatment vs untreated controls; for pest or weed control at 5 g/ha: dosage 5 g/ha; for pest or weed control at 20 g/ha: dosage 20 g/ha
Outline: as §2

AMARE [14] = experiment: Pre-emergence herbicidal action against AMARE; type: in vivo, Amaranthus retroflexus; details: Amaranthus retroflexus, 504 h, scored visually after 3 weeks vs untreated controls, 100% = plants have died, 0% = like control plants
Outline: as §1

VERPE [15] = experiment: Pre-emergence herbicidal action against VERPE; type: in vivo, Veronica persica; details: Veronica persica, 504 h, dosage 80 g/ha
Outline: as §1

SETVI [16] = experiment: Pre-emergence herbicidal action against SETVI; type: in vivo, Setaria viridis; details: Setaria viridis, 504 h; for pest or weed control at 20 g/ha: dosage 20 g/ha; for pest or weed control at 80 g/ha: dosage 80 g/ha
Outline: as §1

AMARE [17] = experiment: Post-emergence herbicidal action against AMARE; type: in vivo, Amaranthus retroflexus; details: Amaranthus retroflexus, 504 h, 20 g/ha, visual assessment about 3 weeks after treatment, 100% = plants have died, 0% = like control plants
Outline: as §2

PHBPU [18] = experiment: Post-emergence herbicidal action against PHBPU; type: in vivo, Pharbitis purpurea; details: Ipomoea purpurea, 504 h; for pest or weed control at 20 g/ha: dosage 20 g/ha
Outline: as §2

DIGSA [19] = experiment: Pre-emergence herbicidal action against DIGSA; type: in vivo, Digitaria sanguinalis; details: Digitaria sanguinalis, 504 h; for pest or weed control at 80 g/ha: dosage 80 g/ha
Outline: as §1

PHBPU [20] = experiment: Pre-emergence herbicidal action against PHBPU; type: in vivo, Pharbitis purpurea; details: Ipomoea purpurea, 504 h, dosage 80 g/ha
Outline: as §1

ABUTH [21] = experiment: Pre-emergence herbicidal action against ABUTH; type: in vivo, Abutilon theophrasti; details: Abutilon theophrasti, 504 h; for pest or weed control at 80 g/ha: scored visually after 3 weeks vs untreated controls (100% = plants have died, 0% = like control plants)
Outline: as §1

LOLRI = experiment: Pre-emergence herbicidal action against LOLRI; type: in vivo, Lolium rigidum; details: Lolium rigidum, 504 h, 80 g/ha
Outline: as §1

MATIN [22] = experiment: Post-emergence herbicidal action against MATIN; type: in vivo, Matricaria inodora; details: Tripleurospermum inodorum, 504 h
Outline: as §2

Structure (SMILES)	pest or weed control at 80 g/ha (ALOMY [1]) [%]	pest or weed control at 20 g/ha (VERPE [2]) [%]	pest or weed control at 20 g/ha (ECHCG [3]) [%]	pest or weed control at 80 g/ha (ECHCG [3]) [%]	pest or weed control at 20 g/ha (VIOTR [4]) [%]	pest or weed control at 20 g/ha (MATIN [5]) [%]	pest or weed control at 80 g/ha (MATIN [5]) [%]	pest or weed control at 5 g/ha (ECHCG [6]) [%]	pest or weed control at 20 g/ha (ECHCG [6]) [%]	pest or weed control at 80 g/ha (POLCO) [%]	pest or weed control at 20 g/ha (ALOMY [7]) [%]	pest or weed control at 80 g/ha (AVEFA [8]) [%]	pest or weed control at 20 g/ha (AVEFA [8]) [%]	pest or weed control at 5 g/ha (SETVI [9]) [%]	pest or weed control at 20 g/ha (SETVI [9]) [%]	pest or weed control at 80 g/ha (VIOTR [10]) [%]	pest or weed control at 5 g/ha (DIGSA [11]) [%]	pest or weed control at 20 g/ha (DIGSA [11]) [%]	pest or weed control at 20 g/ha (AVEFA [12]) [%]	pest or weed control at 5 g/ha (ABUTH [13]) [%]	further results
CNC(=O)c1c(C(F)F)ccc(C(=O)Nc2nnnn2C)c1Br [Example 1-225]	100	90	90	100	80	90	100	90	100	90	90	80	80	90	100	100	90	90	80	80	pest or weed control at 20 g/ha (ABUTH [13]): 80%; pest or weed control at 20 g/ha (AMARE [14]): 100%; pest or weed control at 80 g/ha (AMARE [14]): 100%; pest or weed control at 80 g/ha (VERPE [15]): 80%; pest or weed control at 20 g/ha (SETVI [16]): 90%; pest or weed control at 80 g/ha (SETVI [16]): 100%; pest or weed control at 20 g/ha (AMARE [17]): 100%; pest or weed control at 20 g/ha (PHBPU [18]): 80%; pest or weed control at 80 g/ha (DIGSA [19]): 90%; pest or weed control at 80 g/ha (PHBPU [20]): 100%; pest or weed control at 80 g/ha (ABUTH [21]): 80%; pest or weed control at 80 g/ha (LOLRI): 80%
CCn1nnnc1NC(=O)c1ccc(C(F)(F)F)c(C(=O)NC2CC2)c1C1CC1 [Example 2-288]	90	80	90	100	100	90	100	80	80	90	90	90	80	80	90	100	90	90	80	80	pest or weed control at 5 g/ha (MATIN [22]; dosage 5 g/ha): 80%; pest or weed control at 20 g/ha (MATIN [22]; dosage 20 g/ha): 90%; pest or weed control at 5 g/ha (VIOTR [4]; 5 g/ha): 90%; pest or weed control at 20 g/ha (VIOTR [10]; dosage 20 g/ha): 100%; pest or weed control at 20 g/ha (ABUTH [13]): 80%; pest or weed control at 20 g/ha (AMARE [14]): 100%; pest or weed control at 80 g/ha (AMARE [14]): 100%; pest or weed control at 80 g/ha (VERPE [15]): 100%; pest or weed control at 20 g/ha (SETVI [16]): 90%; pest or weed control at 80 g/ha (SETVI [16]): 100%; pest or weed control at 20 g/ha (AMARE [17]): 100%; pest or weed control at 5 g/ha (PHBPU [18]; dosage 5 g/ha): 80%; pest or weed control at 20 g/ha (PHBPU [18]): 90%; pest or weed control at 20 g/ha (DIGSA [19]; dosage 20 g/ha): 100%; pest or weed control at 80 g/ha (DIGSA [19]): 100%; pest or weed control at 80 g/ha (PHBPU [20]): 90%; pest or weed control at 80 g/ha (ABUTH [21]): 100%; pest or weed control at 20 g/ha (ABUTH [21]; dosage 20 g/ha, scored visually after 3 weeks vs untreated controls, 100% = plants have died, 0% = like control plants, read-out: Pre-emergence action against ABUTH (herbicidal activity in percent)): 100%; pest or weed control at 80 g/ha (LOLRI): 90%

Source: US12655116B2, “Substituted isophthalic acid diamides” (Bayer Aktiengesellschaft, priority 2020, dated 2026)
